The numbers were not newly measured in PMC13603578, “Biopriming with Schizophyllum commune Polysaccharides Modulates Antioxidant and Biochemical Responses in Pisum sativum L. Seedlings” (Antioxidants, 2026), which cites them from elsewhere.

On the set-up of this data set: method as in PMID 26205049. The settings on record: under the tested conditions.

Take liquiritigenin: the DPPH radical-scavenging inhibition entry is on record as “exceeding 65%”.
